# Assay results taken from ChEMBL document CHEMBL3259547, “Selective 5-HT Receptor Modulators May Deliver Focused Targeting with Fewer Adverse Effects” (ACS Med Chem Lett, 2014).
# Biological target: 5-hydroxytryptamine receptor 7 (Rattus norvegicus) (UniProt P32305)
# Assay: Modulation of rat 5HT7 receptor by cAMP assay
# Assay type: functional
# Chain of 5-hydroxytryptamine receptor 7 (Rattus norvegicus) (P32305 whole entry): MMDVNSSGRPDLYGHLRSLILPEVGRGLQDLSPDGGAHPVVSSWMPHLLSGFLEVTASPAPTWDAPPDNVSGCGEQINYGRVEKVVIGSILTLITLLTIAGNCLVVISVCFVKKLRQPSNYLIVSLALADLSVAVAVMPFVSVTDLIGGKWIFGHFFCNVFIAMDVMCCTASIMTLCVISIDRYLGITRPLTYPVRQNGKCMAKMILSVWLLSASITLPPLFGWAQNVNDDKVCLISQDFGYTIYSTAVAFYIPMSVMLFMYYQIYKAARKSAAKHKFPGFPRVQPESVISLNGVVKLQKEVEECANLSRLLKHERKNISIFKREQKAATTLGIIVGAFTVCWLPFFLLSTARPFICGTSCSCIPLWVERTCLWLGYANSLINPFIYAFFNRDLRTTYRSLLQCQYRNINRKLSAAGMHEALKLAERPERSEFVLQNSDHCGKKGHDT
row,pKb,Compound
1,6.8,C[C@@H](Oc1ccc(C(F)(F)F)cc1OC1CNC1)c1cccc(C(F)(F)F)c1
2,6.9,Cc1nc(COc2ccc(Cl)cc2OC2CNC2)cs1
3,7.3,FC(F)(COc1ccc(Cl)cc1OC1CNC1)c1ccccc1
4,7.5,Clc1cccc(COc2ccc(Br)cc2OC2CNC2)c1
